One series has as its system HBV. Kind of series: Anti-HBV activity in vitro, HepG2.2.15 cells, extracellular HBV DNA by qPCR. Particulars: HepG2.2.15 cells, HBV replication inhibited by 50%, extracellular HBV DNA by qPCR, five days after compound treatment, read-out: EC50. Type of series: cell-based. In short, it runs like this:
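Extracellular HBV DNA in culture supernatant was measured by qPCR after nucleic acid extraction. The supernatant came from constitutively replicating HepG2.2.15 cells exposed for five days to half-log-diluted compounds, with DMSO at 0.5% final. Cells had been plated overnight at 37 °C beforehand.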

Series [1] is described as follows: Cytotoxicity in HepDE19 cells (CCK-8) and selectivity index. Type of series: cell-based. The conditions noted are these: human, HepDE19 cells; CCK-8 cell viability; five days after treatment. An excerpt:
(§1) HepG2.2.15 and HepDE19 are stably-transfected cell lines containing the HBV genome. Both cell lines are derived from the hepatoblastoma cell line Hep G2 (American Type Culture Collection, ATCC® HB-8065™) by the published procedures described in references: MA Selles et al. Proc. Natl. Acad. Sci. USA 1987, 84, 1005-1009 and H Guo et al. Journal of Virology 2007, 81, 12472-12484, respectively. Both cell lines were maintained in Dulbecco's modified Eagle's medium (DMEM)-F12 medium supplemented with 10% fetal bovine serum, 100 U/mL penicillin, 100 μg/mL streptomycin, and 0.5 mg/mL of G418.
(§2) HepDE19 cells were seeded into 96-well plates (5×10^3 cells per well) and treated with compounds for EC50 determination. Five days after treatment, cell viability was measured by addition of 20 μL of CCK-8 reagent. Two hours after incubation at 37° C., the absorbance at wavelengths of 450 nm and 630 nm (OD450 and OD630) was recorded by a plate reader. The concentration results in the death of 50% of the host cells (CC50) of each compound were determined.
(§3) The relative effectiveness of the compound in inhibiting viral replication compared to inducing cell death was defined as the selectivity index (CC50 value/EC50 value). Based on CC50 and EC50 data, selectivity indexes were determined.

A further series relates to HepDE19 cells. The series is described as above. Type of series: cell-based. The conditions noted are these: for Selectivity index (CC50/EC50): CC50 (HepDE19) value / EC50 (HepG2.2.15) value; for CC50: HepDE19 cells, CCK-8 cell viability, five days after treatment.
Description: as §1, §2, §3

A short description of series [2]: Human microsomal metabolic stability. Type of series: in vitro ADME. Particulars: human microsomes 0.5 mg/mL, 1 μM test compound, NADPH, 37° C., pH 7.4, 0-30 minutes. On the procedure:
Human Microsomes (BD Gentest) were preincubated with test compound for 10 minutes at 37° C. in 100 mM phosphate buffer, pH 7.4. The reactions were initiated by adding NADPH or NADPH regenerating system to give a final incubation volume of 400 μL. For NADPH system, the final incubations contained 1 μM test compound, 0.5 mg/mL liver microsomal protein, 1 mM NADPH in 100 mM phosphate buffer, pH 7.4. For the NADPH regenerating system, the final incubations contained 1 μM test compound, 0.5 mg/mL liver microsomal protein, 3 mM glucose 6-phosphate, 1 mM NADP, 3 mM MgCl2 and 0.05 mg/mL glucose 6-phosphate dehydrogenase in 100 mM phosphate buffer, pH 7.4. After incubation times of 0, 3, 6, 9, 15 and 30 minutes at 37° C., 1 sample was obtained from each time point and 50 μL of each sample was removed and transferred to 150 μL of methanol solution which was maintained at 4° C. and contained 2 μM tolbutamide as internal standard. Following precipitation and centrifugation, the amount of compound remaining in the samples were determined by LC-MS/MS. Controls of no NADPH or no NADPH regenerating system at zero and 30 minutes were also prepared and analyzed.

A further series is described as follows: Lysa solubility. Type of series: physicochemical. Particulars: 0.05 M phosphate buffer (pH 6.5); for solubility thermodynamic: phosphate buffer, pH 6.5, aqueous buffer, thermodynamic from solid. On the procedure: Samples were prepared in duplicate from 10 mM DMSO stock solutions. After evaporation of DMSO with a centrifugal vacuum evaporator, the residue was solved in 0.05 M phosphate buffer (pH 6.5), stirred for one hour and shook for two hours. After one night, the solution was filtered using a microtiter filter plate. Then the filtrate and its 1/10 dilution were analyzed by direct UV measurement or by HPLC-UV. […] The results were in μg/mL. In case the percentage of sample measured in solution after evaporation divided by the calculated maximum of sample amount was over 80%, the solubility was reported as higher than this value.

Setting [3] is: Hepatitis B virus, HepG2.2.15, 120 h.

Structures are written as SMILES. Values after ≈ are worked out from the molar mass of the structure shown. Read-outs that look alike come from different tables or passages of the source.

Eleven compounds from patent US9233978B2, “6-fused heteroaryldihydropyrimidines for the treatment and prophylaxis of hepatitis B virus infection” (Hoffmann-La Roche Inc., priority 2014, dated 2016) can be followed below.

As for `CCOC(=O)C1=C(CN2CCN3C(=O)NCC3(C(=O)OC)C2)NC(c2nccs2)=N[C@H]1c1cccc(F)c1Cl` (stereo partly drawn) [Example 24, Methyl 7-[[(4R)-4-(2-chloro-3-fluoro-phenyl)-5-ethoxycarbonyl-2-thiazol-2-yl-1,4-dihydropyrimidin-6-yl]methyl]-3-oxo-2,5,6,8-tetrahydro-1H-imidazo[1,5-a]pyrazine-8a-carboxylate], the EC50 (commonly the concentration giving half of the maximal effect) in the series on HBV (setting [3]) was found to be 1 nM. Besides, in series [1], the CC50 (usually the concentration that lowers cell viability or growth by half) at 5 days came to 53 µM. The “Selectivity index (CC50/EC50)” value in the series on HepDE19 cells is listed as 37857.
In the case of `CCOC(=O)C1=C(CN2CCN3C(=O)N(C(C)(C)C(=O)O)C[C@@H]3C2)NC(c2nccs2)=N[C@H]1c1cccc(F)c1Cl` [Example 32, (R)-6-[(S)-2-(1-Carboxy-1-methyl-ethyl)-3-oxo-hexahydro-imidazo[1,5-a]pyrazin-7-ylmethyl]-4-(2-chloro-3-fluoro-phenyl)-2-thiazol-2-yl-1,4-dihydro-pyrimidine-5-carboxylic acid ethyl ester], the EC50 in the series on HBV (setting [3]) is 199 nM. In series [2], the “Human Microsomal Clearance” value is reported as 1.6 mL/min/kg. Besides, the solubility (thermodynamic) – broadly, solubility found after equilibrating the solid with the medium – in “Lysa solubility” is greater than 701 µg/mL.
For `CCOC(=O)C1=C(CN2CCN3C(=O)N(CC(OC)C(=O)O)C[C@@H]3C2)NC(c2nccs2)=N[C@H]1c1cccc(F)c1Cl` (stereo partly drawn) [Example 78, 3-[(8aS)-7-[[(4R)-4-(2-chloro-3-fluoro-phenyl)-5-ethoxycarbonyl-2-thiazol-2-yl-1,4-dihydropyrimidin-6-yl]methyl]-3-oxo-5,6,8,8a-tetrahydro-1H-imidazo[1,5-a]pyrazin-2-yl]-2-methoxy-propanoic acid], in that order: 387 nM, 6.7 mL/min/kg and greater than 793 µg/mL.
Consider `COC(=O)C1=C(CN2CCN3C(=O)N(C4CCC(C(=O)O)C4)C[C@@H]3C2)NC(c2nccs2)=N[C@H]1c1ccc(F)cc1Cl` (mixture of isomers) [Example 63, (R)-6-[(S)-2-((1R,3R)-3-Carboxy-cyclopentyl)-3-oxo-hexahydro-imidazo[1,5-a]pyrazin-7-ylmethyl]-4-(2-chloro-4-fluoro-phenyl)-2-thiazol-2-yl-1,4-dihydro-pyrimidine-5-carboxylic acid methyl ester and (R)-6-[(S)-2-((1S,3S)-3-Carboxy-cyclopentyl)-3-oxo-hexahydro-imidazo[1,5-a]pyrazin-7-ylmethyl]-4-(2-chloro-4-fluoro-phenyl)-2-thiazol-2-yl-1,4-dihydro-pyrimidine-5-carboxylic acid methyl ester], for which, in the series on HBV, the EC50 was 12 nM. Besides, in the series with HepDE19 cells, the “Selectivity index (CC50/EC50)” value came out at 7583 and the CC50 is 91 µM. Further, in series [2], the “Human Microsomal Clearance” value came to 5.3 mL/min/kg. In addition, the “Lysa” value in “Lysa solubility” is greater than 751 µg/mL.
As for `COC(=O)C1=C(CN2CCN3C(=O)N(C(C)C)CC3(CC(=O)O)C2)NC(c2nccs2)=N[C@H]1c1ccc(F)cc1Cl` (stereo partly drawn) [Example 31, 2-[7-[[(4R)-4-(2-chloro-4-fluoro-phenyl)-5-methoxycarbonyl-2-thiazol-2-yl-1,4-dihydropyrimidin-6-yl]methyl]-2-isopropyl-3-oxo-1,5,6,8-tetrahydroimidazo[1,5-a]pyrazin-8a-yl]acetic acid], in the series with HBV (setting [3]), the EC50 was 100 nM. In addition, the “Human Microsomal Clearance” value in series [2] amounted to 0.3 mL/min/kg. Further, in the series “Lysa solubility”, the thermodynamic solubility was greater than 775 µg/mL.
In the case of `CCOC(=O)C1=C(CN2CCN3C(=O)N(C4CCC(C(=O)O)C4)C[C@@H]3C2)NC(c2nccs2)=N[C@H]1c1cccc(F)c1Cl` (mixture of isomers) [Example 64, (R)-6-[(S)-2-((1R,3R)-3-Carboxy-cyclopentyl)-3-oxo-hexahydro-imidazo[1,5-a]pyrazin-7-ylmethyl]-4-(2-chloro-3-fluoro-phenyl)-2-thiazol-2-yl-1,4-dihydro-pyrimidine-5-carboxylic acid ethyl ester and (R)-6-[(S)-2-((1S,3S)-3-Carboxy-cyclopentyl)-3-oxo-hexahydro-imidazo[1,5-a]pyrazin-7-ylmethyl]-4-(2-chloro-3-fluoro-phenyl)-2-thiazol-2-yl-1,4-dihydro-pyrimidine-5-carboxylic acid ethyl ester], the EC50 in the series with HBV was 8 nM. In addition, in the series on HepDE19 cells, the “Selectivity index (CC50/EC50)” value amounted to 8375 and it took 67 µM to reach half-maximal cytotoxicity (CC50). Besides, in series [2], the “Human Microsomal Clearance” value is on record as 5.6 mL/min/kg. Also, in the series “Lysa solubility”, the “Lysa” value is greater than 669 µg/mL.
Take `CCOC(=O)C1=C(CN2CCN3C(=O)N(CCCOCC(=O)O)CC3C2)NC(c2nccs2)=N[C@H]1c1cccc(F)c1Cl` (stereo partly drawn) [Example 68, 2-[3-[7-[[(4R)-4-(2-chloro-3-fluoro-phenyl)-5-ethoxycarbonyl-2-thiazol-2-yl-1,4-dihydropyrimidin-6-yl]methyl]-3-oxo-5,6,8,8a-tetrahydro-1H-imidazo[1,5-a]pyrazin-2-yl]propoxy]acetic acid]: in the series with HBV (setting [3]), the EC50 amounted to 143 nM. Besides, in series [2], the “Human Microsomal Clearance” value came to 4.5 mL/min/kg. The same compound came in with a solubility (thermodynamic) in the series “Lysa solubility” greater than 794 µg/mL.
Consider `CCOC(=O)C1=C(CN2CCN3C(=O)N(CCOCC(=O)O)CC3C2)NC(c2nccs2)=N[C@H]1c1cccc(F)c1Cl` (stereo partly drawn) [Example 67, 2-[2-[7-[[(4R)-4-(2-chloro-3-fluoro-phenyl)-5-ethoxycarbonyl-2-thiazol-2-yl-1,4-dihydropyrimidin-6-yl]methyl]-3-oxo-5,6,8,8a-tetrahydro-1H-imidazo[1,5-a]pyrazin-2-yl]ethoxy]acetic acid], for which the EC50 with HBV (setting [3]) was found to be 438 nM. The “Human Microsomal Clearance” value in series [2] worked out at 4.7 mL/min/kg. In the series “Lysa solubility”, this compound returned a thermodynamic solubility greater than 794 µg/mL.
For `COC(=O)C1=C(CN2CCN3C(=O)N(C(C)(C)CC(=O)O)C[C@@H]3C2)NC(c2nccs2)=N[C@H]1c1ccc(F)cc1Cl` [Example 33, 3-[(8aS)-7-[[(4R)-4-(2-chloro-4-fluoro-phenyl)-5-methoxycarbonyl-2-thiazol-2-yl-1,4-dihydropyrimidin-6-yl]methyl]-3-oxo-5,6,8,8a-tetrahydro-1H-imidazo[1,5-a]pyrazin-2-yl]-3-methyl-butanoic acid], in that order: 30 nM, 2.5 mL/min/kg and greater than 748 µg/mL.
Consider `CCOC(=O)C1=C(CN2CCN3C(=O)N(CCCC(=O)O)C[C@@H]3C2)NC(c2nccs2)=N[C@H]1c1cccc(F)c1Cl` [Example 53, 4-[(8aS)-7-[[(4R)-4-(2-chloro-3-fluoro-phenyl)-5-ethoxycarbonyl-2-thiazol-2-yl-1,4-dihydropyrimidin-6-yl]methyl]-3-oxo-5,6,8,8a-tetrahydro-1H-imidazo[1,5-a]pyrazin-2-yl]butanoic acid], for which the EC50 in the series on HBV (setting [3]) turned out to be 19 nM. Besides, in series [2], the “Human Microsomal Clearance” value stood at 5.1 mL/min/kg. This compound also returned a solubility (thermodynamic) in “Lysa solubility” greater than 723 µg/mL.
Regarding `COC(=O)C1=C(CN2CCN3C(=O)N([C@H]4CCC[C@H]4C(=O)O)C[C@@H]3C2)NC(c2nccs2)=N[C@H]1c1ccc(F)cc1Cl` [Example 51, (1R,2S)-2-[(8aS)-7-[[(4R)-4-(2-chloro-4-fluoro-phenyl)-5-methoxycarbonyl-2-thiazol-2-yl-1,4-dihydropyrimidin-6-yl]methyl]-3-oxo-5,6,8,8a-tetrahydro-1H-imidazo[1,5-a]pyrazin-2-yl]cyclopentanecarboxylic acid], in the series on HBV (setting [3]), the EC50 came to 31 nM. Further, the “Human Microsomal Clearance” value in series [2] was found to be 2.0 mL/min/kg. This compound displayed a thermodynamic solubility in “Lysa solubility” of 589 µg/mL (≈ 954 µM).
